IC50 and inhibition data for eleven molecules are collected here from patent US5760036A, “Aminediol protease inhibitors” (E. R. Squibb & Sons, Inc., priority 1995, dated 1998).

Test [1] concerns RF strain of HIV (CEM-SS cells). Kind of test: Cell Culture Anti-HIV Activity (cell viability, formazan). The test is classed as cell-based. Particulars: Human immunodeficiency virus 1, CEM-SS, 144 h, CEM-SS cells, RF strain of HIV, multiplicity of infection 0.04, 6 days at 37° C., 450 nm; read-out: HIV (CEM Cells) IC50. In a few lines: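 Half-log compound dilutions added to CEM-SS cells (5000/well) carrying HIV RF (MOI 0.04), 6 days, 37° C. Cell protection measured as formazan from tetrazolium, A450. IC50: drug level restoring infected-cell formazan to 50% of the uninfected untreated control.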

The target in another test is T1, HIV protease (Human immunodeficiency virus type 1 group M subtype B, UniProt P04585).
T1 construct: and purified protease
Kind of test: HIV Protease Assay. The test is classed as biochemical. Particulars: pH 5.5, 10 μM inhibitor, 4% DMSO, 450 μM substrate, pH 5.5, 30 minutes at 37° C., RP-HPLC; read-out: HIV Protease % Inhibition at 10 μM. In a few lines:
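At a single final concentration of 10 μM (4% DMSO), inhibitors were added to a 30-minute, 37° C reaction of purified enzyme with 450 μM H2N-Val-Ser-Gln-Asn-(β-naphthyl-alanine)-Pro-Val-Ile-OH at pH 5.5 (sodium acetate, BSA). Hydrolysis was quantified by reverse-phase HPLC with 220 nm detection after acid quench.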

Where a name gives a salt, the structure may show the parent alone.

Broadly, the IC50 is the point on the concentration scale where inhibition reaches its midpoint. The inhibition is the drop in the measured response relative to a control, in per cent. Take `CC(C)(C)OC(=O)N[C@@H](Cc1ccccc1)[C@H](O)CNC[C@@H](O)[C@H](Cc1c[nH]c2ccccc12)NC(=O)OCc1ccccc1` [Compound 22, [1S-[1R*,2S*(2S*,3R*)]]-[3-[[3-[[(1,1-Dimethylethoxy)carbonyl]amino]-2-hydroxy-4-ehenylbutyl]amino]-2-hydroxy-1-[(1H-indol-3-yl)methyl]propyl]carbamic acid, phenylmethyl ester]: the 50% inhibitory concentration (IC50) in test [1] is over 1800 nM. Also, the inhibition at 10 µM at HIV protease stood at 90%.
As for `CC(C)(C)OC(=O)N[C@@H](Cc1ccccc1)[C@H](O)CNC[C@@H](O)[C@H](Cc1ccccc1)NC(=O)C1(O)CCOC1` (stereo partly drawn) [Compound 330, [1S-[1R*,2S*(2S*,3R*)]]-[2-hydroxy-3-[[2-hydroxy-3-[[(tetrahydro-3-hydroxy-3-furanyl)carbonyl]amino]-4-phenylbutyl]amino]-1-(phenylmethyl)propyl]carbamic acid, 1,1-dimethylethyl ester], in test [1], the concentration for half-maximal inhibition (IC50) is 850 nM. On HIV protease, the inhibition at 10 µM was found to be 92%.
Consider `CC(C)[C@H](NC(=O)[C@H](O)Cc1ccccc1)C(=O)N[C@@H](Cc1ccccc1)[C@H](O)CNC[C@@H](O)[C@H](Cc1ccccc1)NC(=O)OC(C)(C)C` [Compound 78, [S-[1R*,2S*[2S*,3R*,N1S*]-N-[3-[[3-[[(1,1-Dimethylethoxy)carbonyl]amino]-2-hydroxy-4-phenylbutyl]amino]-2-hydroxy-1-(phenylmethyl)[propyl]-N^2-(2-hydroxy-1-oxo-3-phenyl-propyl)-L-valinamide], for which the IC50 in test [1] amounted to 160 nM. Further, the inhibition at 10 µM on HIV protease turned out to be 99%.
As for `CC(C)[C@H](NC(=O)[C@@H](N)Cc1ccccc1)C(=O)N[C@@H](Cc1ccccc1)[C@H](O)CNC[C@@H](O)[C@H](Cc1ccccc1)NC(=O)OC(C)(C)C` [Compound 84, [S-[1R*,2S*(2S*,3R*)]-N-[3-[[3-[[(1,1-Dimethylethoxy)carbonyl]amino]-2-hydroxy-4-phenylbutyl]amino]-2-hydroxy-1-(phenylmethyl)propyl)-L-valyl]-L-phenylalanamide, fumarate (2:3) salt], in test [1], the concentration for half-maximal inhibition (IC50) came to 1200 nM. In addition, at HIV protease, the inhibition at 10 µM was 99%.
The like results for `CC(C)(C)OC(=O)N[C@@H](Cc1ccccc1)C(O)CN(Cc1ccccc1)CC(O)[C@H](Cc1ccccc1)NC(=O)OC(C)(C)C` (stereo partly drawn) [Compound 194, [2S-(2R*,2R*)]-[[(Phenylmethyl)-imino]bis[2-hydroxy-4-phenyl-3,1-butanediyl]]biscarbamic acid, bis(1,1-dimethylethyl)ester] were, in that order, over 5000 nM and 0%.
Take `CCC(C)(C)OC(=O)N[C@@H](Cc1ccccc1)[C@H](O)CNC[C@@H](O)[C@H](Cc1ccccc1)NC(=O)OC(C)(C)CC` [Compound 138, [R-(R*,S*)]-[Iminobis[2-hydroxy-1-(phenylmethyl)-3,1-propandiyl]]biscarbamic acid, bis(1,1-dimethylpropyl)ester]: the concentration for half-maximal inhibition (IC50) in test [1] was over 800 nM. In addition, the inhibition at 10 µM on HIV protease was 98%.
For the molecule `CC(C)[C@H](NC(=O)[C@H](Cc1ccccc1)NC(=O)OCc1ccccc1)C(=O)N[C@@H](Cc1ccccc1)[C@H](O)CNC[C@@H](O)[C@H](Cc1ccccc1)NC(=O)OC(C)(C)C` [Compound 62, [1S-[1R*,2S*(2S*,3R*)]-N-[3-[[3-[[(1,1-Dimethylethoxy)carbonyl]amino]-2-hydroxy-4-phenylbutyl]amino]-2-hydroxy-1-(phenyl-methyl)propyl]-N^2-[(phenylmethoxy)carbonyl]-L-phenylalanyl]-L-valinamide], the IC50 in test [1] was 50 nM. Also, the inhibition at 10 µM at HIV protease amounted to 98%.
The matching figures for `CN(CC(O)[C@H](Cc1ccccc1)NC(=O)OC(C)(C)C)C[C@@H](O)[C@H](Cc1ccccc1)NC(=O)OC(C)(C)C` (stereo partly drawn) [Compound 198, [1S-[1R*,2S*(3R*)]]-[3-[[3-[[(1,1-Dimethylethoxy)carbonyl]-amino]-2-hydroxy-4-phenylbutyl]-methylamino]-2-hydroxy-1-(phenylmethyl)propyl]-carbamic acid, 1,1-dimethylethyl ester]: over 14000 nM and 10%.
For the molecule `CC(C)[C@H](NC(=O)OCc1ncc[nH]1)C(=O)N[C@@H](Cc1ccccc1)[C@H](O)CNC[C@@H](O)[C@H](Cc1ccccc1)NC(=O)OC(C)(C)C` (relative stereo) [Compound 249, [1R*,2S*(2S*,3R*)]-N-[3-[[3-[[(1,1-Dimethylethoxy)carbonyl]amino]-2-hydroxy-4-phenylbutyl]amino]-2-hydroxy-1-(phenylmethyl)propyl]-N^2-[(1H-imidazol-2-ylmethoxy)carbonyl]-L-valinamide, acetate (2:3) salt], the half-maximal inhibitory concentration (IC50) in test [1] was 840 nM. The inhibition at 10 µM on HIV protease stood at 100%.
The like results for `CC[C@H](C)[C@H](NC(=O)OC(C)(C)C)[C@H](O)CNC[C@@H](O)[C@@H](NC(=O)OC(C)(C)C)[C@@H](C)CC` [Compound 13, [R-(R*,S*)]-[Iminobis[2-hydroxy-1-(1-methylpropyl)-3,1-proyanediyl]]biscarbamic acid, 1,1-dimethylethyl ester] were, in that order, 5300 nM and 45%.
The matching figures for `CC(C)(C)OC(=O)N[C@@H](Cc1ccccc1)[C@H](O)CNC[C@@H](O)[C@H](Cc1ccc(OCC(=O)N2CCOCC2)cc1)NC(=O)OC(C)(C)C` [Compound 226, [1S-[1R*,2S*(2S*,3R*)]]-[3-[[3-[[(1,1-Dimethylethoxy)carbonyl]amino]-2-hydroxy-4-(4-[2-(4-morpholinyl)-2-oxo-ethoxy]phenyl]butyl]amino]-2-hydroxy-1-(phenylmethyl)propyl]carbamic acid, 1,1-dimethylethyl ester]: 50 nM and 98%.
